Reference: ChEMBL document CHEMBL3259527, “Synthesis and molecular docking studies of potent α-glucosidase inhibitors based on biscoumarin skeleton” (Eur J Med Chem, 2014)
pIC50: −log10 of the molar value.

organism: Rattus norvegicus; test: Ratio of acarbose IC50 to compound IC50 for rat intestinal alpha-glucosidase using p-nitrophenyl-alpha-D-glucopyranoside assessed as release of p-nitrophenol after 5 mins by spectrophotometric analysis

Structure (SMILES)	Ratio IC50
O=c1oc2ccc(Cl)cc2c(O)c1C(c1ccc(Cl)cc1Cl)c1c(O)c2cc(Cl)ccc2oc1=O	54
O=c1oc2ccc(Cl)cc2c(O)c1C(c1cccc([N+](=O)[O-])c1)c1c(O)c2cc(Cl)ccc2oc1=O	33

target: not listed separately; test: Inhibition of rat intestinal alpha-glucosidase using p-nitrophenyl-alpha-D-glucopyranoside assessed as release of p-nitrophenol after 5 mins by spectrophotometric analysis

Structure (SMILES)	pIC50
O=c1oc2ccc(Cl)cc2c(O)c1C(c1cccc(O)c1)c1c(O)c2cc(Cl)ccc2oc1=O	4.08
COc1ccc(C(c2c(O)c3cc(C)ccc3oc2=O)c2c(O)c3cc(C)ccc3oc2=O)cc1	3.97
Cc1ccc2oc(=O)c(C(c3ccc([N+](=O)[O-])cc3)c3c(O)c4cc(C)ccc4oc3=O)c(O)c2c1	4.10
COc1cc(C(c2c(O)c3cc(C)ccc3oc2=O)c2c(O)c3cc(C)ccc3oc2=O)cc(OC)c1OC	3.41
Cc1ccc2oc(=O)c(C(c3cccc(O)c3)c3c(O)c4cc(C)ccc4oc3=O)c(O)c2c1	4.28
COc1cc(C(c2c(O)c3cc(Cl)ccc3oc2=O)c2c(O)c3cc(Cl)ccc3oc2=O)ccc1O	3.95
O=c1oc2ccc(Cl)cc2c(O)c1C(c1ccc(Cl)cc1Cl)c1c(O)c2cc(Cl)ccc2oc1=O	4.78
CSc1ccc(C(c2c(O)c3cc(C)ccc3oc2=O)c2c(O)c3cc(C)ccc3oc2=O)cc1	4.43
CCOc1cc(C(c2c(O)c3cc(C)ccc3oc2=O)c2c(O)c3cc(C)ccc3oc2=O)ccc1O	3.65
Cc1ccc2oc(=O)c(C(c3cccc([N+](=O)[O-])c3)c3c(O)c4cc(C)ccc4oc3=O)c(O)c2c1	4.17
Cc1ccc2oc(=O)c(C(c3ccccc3[N+](=O)[O-])c3c(O)c4cc(C)ccc4oc3=O)c(O)c2c1	3.89
O=c1oc2ccc(Cl)cc2c(O)c1C(c1cccc([N+](=O)[O-])c1)c1c(O)c2cc(Cl)ccc2oc1=O	4.57
COc1ccc(C(c2c(O)c3cc(Cl)ccc3oc2=O)c2c(O)c3cc(Cl)ccc3oc2=O)cc1OC	4.04
COc1ccc(C(c2c(O)c3cc(Cl)ccc3oc2=O)c2c(O)c3cc(Cl)ccc3oc2=O)cc1O	4.08
O=c1oc2ccc(Cl)cc2c(O)c1C(c1ccccc1[N+](=O)[O-])c1c(O)c2cc(Cl)ccc2oc1=O	4.09
CCOc1cc(C(c2c(O)c3cc(Cl)ccc3oc2=O)c2c(O)c3cc(Cl)ccc3oc2=O)ccc1O	4.24
COc1ccc(C(c2c(O)c3cc(Cl)ccc3oc2=O)c2c(O)c3cc(Cl)ccc3oc2=O)cc1	4.12
C[C@H]1O[C@H](O[C@H]2[C@H](O)[C@@H](O)[C@@H](O[C@H]3[C@H](O)[C@@H](O)C(O)O[C@@H]3CO)O[C@@H]2CO)[C@H](O)[C@@H](O)[C@@H]1N[C@H]1C=C(CO)[C@@H](O)[C@H](O)[C@H]1O (stereo partly specified) [ACARBOSE]	3.04
COc1cc(C(c2c(O)c3cc(Cl)ccc3oc2=O)c2c(O)c3cc(Cl)ccc3oc2=O)cc(OC)c1OC	3.89
